US11958842B2, “Substituted phenazines and methods of treating cancer and bacterial diseases” (Adjutec Pharma AS, priority 2016, dated 2024)

How the values were obtained:
[1] = system: methicillin-resistant S. aureus MRSA A4-37; experiment: Microbroth dilution MIC; assay type: cell-based; conditions: compound alone
Experimental: (§1) Day 1: • Plate bacterial strain(s) on appropriate media: • Gram-negative bacteria with ESBLs or carbapenemases: green agar plates with 100 mg/L ampicillin • Gram-negative bacteria without β-lactamases: green agar plates • Gram-positive bacteria (Staphylococci and Enterococci): blood agar plates • Incubate o.n. at 37° C.
(§2) Prepare the Bacterial Inoculum: • Prepare a 0.5 McFarland suspension of bacteria in 0.85% NaCl. (Should be used within 15 min of preparation). • Dilute the 0.5 McFarland suspension 1:100 into MH broth.
(§3) Check the inoculum by diluting the prepared bacterial suspension 1:100 (10 μl bacterial suspension+990 μl 0.85% NaCl). Plate 10 μl of the dilution on MH agar plates (×2). Incubate o.n. at 37° C., count the colonies and calculate the final CFU/ml inoculum in the plate by multiplying the average number of colonies with 10000 and divide by 2. The final inoculum should be between 3-7×10^5 CFU/ml. • Add 50 μl of the prepared bacterial suspension to each well in the microtiter plate except negative growth control.
(§4) Preparation of Compounds/Antibiotics • Calculate the desired concentration-range and volume of the compounds/antibiotics in the assay. For antibiotics this will depend on the MIC to meropenem of the bacterial strains to be tested. Dilute the stock solution in MH broth. Make subsequent 2-fold dilutions in MH broth of the desired concentrations if a concentration range is to be tested (remember the extra dilution factor in the assay plate). Always include extra volume for pipetting. Take into consideration stock solutions that are made in buffers that have an effect on bacterial growth (e.g. DMSO).
(§5) This experimental design was used for the results in Tables 4 and 5 below. In Table 4, inhibitor concentration dependency on the MIC of meropenem was studied.

[2] = system: vancomycin-resistant E. faecium vanA A1-22; experiment: Microbroth dilution MIC; assay type: cell-based; conditions: compound alone
Experimental: as §1, §2, §3, §4, §5

MIC A4-37 S. aureus MRSA [1]: < 0.5 µg/mL
MIC A1-22 E. faecium vanA [2]: < 8 µg/mL
SMILES: COc1cccc2c1[n+]([O-])c1cccc(O)c1[n+]2O [Example 5a, 1-hydroxy-6-methoxyphenazine 5.10-dioxide, reference compound]
